# Reference: ChEMBL document CHEMBL5653615 (J Biol Chem, 2013)
# What was measured:
# [1] = biological target: T1, Discoidin domain-containing receptor 2 (Homo sapiens) (UniProt Q16832); experiment: Inhibition of human DDR2 at 18.6 nM by HotSpot assay relative to control
# T1 sequence (whole entry): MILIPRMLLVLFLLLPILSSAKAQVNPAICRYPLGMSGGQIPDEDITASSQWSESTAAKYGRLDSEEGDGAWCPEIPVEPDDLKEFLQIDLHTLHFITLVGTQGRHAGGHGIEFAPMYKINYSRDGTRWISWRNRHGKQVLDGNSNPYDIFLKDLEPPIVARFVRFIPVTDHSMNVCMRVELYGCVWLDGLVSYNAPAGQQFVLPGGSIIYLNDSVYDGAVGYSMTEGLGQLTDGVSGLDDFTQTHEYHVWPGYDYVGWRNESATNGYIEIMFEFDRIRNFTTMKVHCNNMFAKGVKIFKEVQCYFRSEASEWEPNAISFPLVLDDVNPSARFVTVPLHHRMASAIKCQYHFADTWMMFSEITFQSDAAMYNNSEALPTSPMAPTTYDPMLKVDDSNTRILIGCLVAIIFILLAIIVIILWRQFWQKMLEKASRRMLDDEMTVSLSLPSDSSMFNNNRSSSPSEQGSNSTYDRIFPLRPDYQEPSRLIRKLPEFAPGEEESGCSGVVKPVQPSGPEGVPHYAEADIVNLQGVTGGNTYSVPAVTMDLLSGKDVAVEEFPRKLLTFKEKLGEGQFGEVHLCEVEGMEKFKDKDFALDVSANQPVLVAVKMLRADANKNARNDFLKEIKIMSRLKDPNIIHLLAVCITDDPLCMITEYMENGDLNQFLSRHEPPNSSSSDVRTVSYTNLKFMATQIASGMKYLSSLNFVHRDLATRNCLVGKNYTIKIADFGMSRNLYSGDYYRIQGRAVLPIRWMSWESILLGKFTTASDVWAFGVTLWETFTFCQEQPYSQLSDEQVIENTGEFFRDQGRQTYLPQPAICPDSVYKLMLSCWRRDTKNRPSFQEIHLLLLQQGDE
# [2] = biological target: Fibroblast growth factor receptor 3 (Homo sapiens) (UniProt P22607); experiment: Inhibition of human FGFR3 at 18.6 nM by HotSpot assay relative to control
# Chain of Fibroblast growth factor receptor 3 (Homo sapiens) (P22607 23-806 limits assumed): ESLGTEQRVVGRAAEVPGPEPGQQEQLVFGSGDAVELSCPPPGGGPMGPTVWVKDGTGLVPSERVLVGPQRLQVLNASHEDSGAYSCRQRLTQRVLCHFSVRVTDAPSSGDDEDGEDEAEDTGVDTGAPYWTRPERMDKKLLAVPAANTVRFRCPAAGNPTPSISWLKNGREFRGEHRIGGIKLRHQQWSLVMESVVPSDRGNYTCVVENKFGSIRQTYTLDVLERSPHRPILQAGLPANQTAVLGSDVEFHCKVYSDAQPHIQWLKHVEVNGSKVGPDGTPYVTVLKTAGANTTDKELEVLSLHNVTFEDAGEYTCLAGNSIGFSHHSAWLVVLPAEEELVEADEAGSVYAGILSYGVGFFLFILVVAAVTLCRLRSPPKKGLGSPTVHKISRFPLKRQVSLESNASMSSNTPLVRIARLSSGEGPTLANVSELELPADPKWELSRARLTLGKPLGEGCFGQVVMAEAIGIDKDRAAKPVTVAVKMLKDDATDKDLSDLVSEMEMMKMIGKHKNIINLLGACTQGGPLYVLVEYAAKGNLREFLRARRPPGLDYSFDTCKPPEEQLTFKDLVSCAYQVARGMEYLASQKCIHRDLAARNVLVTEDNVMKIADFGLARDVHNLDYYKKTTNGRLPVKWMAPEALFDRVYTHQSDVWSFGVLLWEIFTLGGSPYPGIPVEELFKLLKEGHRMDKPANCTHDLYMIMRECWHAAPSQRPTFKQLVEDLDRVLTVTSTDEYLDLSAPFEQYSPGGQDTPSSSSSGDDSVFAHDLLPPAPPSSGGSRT
# [3] = biological target: T2, Serine/threonine-protein kinase haspin (Homo sapiens) (UniProt Q8TF76); experiment: Inhibition of human Haspin at 18.6 nM by HotSpot assay relative to control
# T2 sequence (whole entry): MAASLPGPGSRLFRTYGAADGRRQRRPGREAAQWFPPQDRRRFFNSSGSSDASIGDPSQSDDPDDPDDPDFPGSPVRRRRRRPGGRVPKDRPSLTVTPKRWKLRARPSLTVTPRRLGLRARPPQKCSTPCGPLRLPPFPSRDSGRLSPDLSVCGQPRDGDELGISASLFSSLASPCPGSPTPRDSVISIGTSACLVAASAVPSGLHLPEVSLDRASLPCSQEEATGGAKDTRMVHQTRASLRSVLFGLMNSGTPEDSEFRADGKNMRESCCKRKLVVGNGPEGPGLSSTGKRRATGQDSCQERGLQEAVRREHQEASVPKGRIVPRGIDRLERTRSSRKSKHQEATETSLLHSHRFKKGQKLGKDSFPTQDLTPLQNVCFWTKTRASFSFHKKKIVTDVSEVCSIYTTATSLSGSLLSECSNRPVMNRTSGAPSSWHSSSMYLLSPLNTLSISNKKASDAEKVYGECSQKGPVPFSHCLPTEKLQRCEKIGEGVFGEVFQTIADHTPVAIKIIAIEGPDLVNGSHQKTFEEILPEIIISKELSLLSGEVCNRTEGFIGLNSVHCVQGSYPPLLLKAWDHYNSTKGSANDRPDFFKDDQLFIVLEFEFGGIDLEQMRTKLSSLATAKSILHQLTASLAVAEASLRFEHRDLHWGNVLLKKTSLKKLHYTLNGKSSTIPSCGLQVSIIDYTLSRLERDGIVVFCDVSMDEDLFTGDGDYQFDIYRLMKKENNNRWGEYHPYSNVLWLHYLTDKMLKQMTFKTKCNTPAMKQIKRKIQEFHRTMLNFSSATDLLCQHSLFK
# [4] = biological target: Cyclin-dependent kinase 5/CDK5 activator 1 (Homo sapiens) (UniProt Q00535+Q15078); experiment: Inhibition of human CDK5/p35 at 1.82 nM by HotSpot assay relative to control; format: protein-complex assay
# Chain of Cyclin-dependent kinase 5/CDK5 activator 1 (Homo sapiens) (Q00535 whole entry): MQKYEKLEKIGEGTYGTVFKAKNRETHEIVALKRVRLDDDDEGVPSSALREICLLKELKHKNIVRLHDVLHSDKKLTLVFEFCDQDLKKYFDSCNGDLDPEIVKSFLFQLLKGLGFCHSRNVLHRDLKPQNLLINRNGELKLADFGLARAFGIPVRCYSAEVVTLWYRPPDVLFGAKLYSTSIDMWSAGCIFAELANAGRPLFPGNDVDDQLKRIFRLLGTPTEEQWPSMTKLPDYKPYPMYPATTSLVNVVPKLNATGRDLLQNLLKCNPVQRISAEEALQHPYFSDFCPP
# Chain of Cyclin-dependent kinase 5/CDK5 activator 1 (Homo sapiens) (Q15078 99-307 partner limits assumed): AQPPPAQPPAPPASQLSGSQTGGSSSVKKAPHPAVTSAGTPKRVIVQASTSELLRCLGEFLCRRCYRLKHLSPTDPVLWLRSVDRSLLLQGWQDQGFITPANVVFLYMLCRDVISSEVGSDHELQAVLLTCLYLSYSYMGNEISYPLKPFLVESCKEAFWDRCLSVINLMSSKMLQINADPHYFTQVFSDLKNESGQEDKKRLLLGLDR
# [5] = biological target: T3, Ephrin type-A receptor 8 (Homo sapiens) (UniProt P29322); experiment: Inhibition of human EPHA8 at 1.82 nM by HotSpot assay relative to control
# T3 sequence (whole entry): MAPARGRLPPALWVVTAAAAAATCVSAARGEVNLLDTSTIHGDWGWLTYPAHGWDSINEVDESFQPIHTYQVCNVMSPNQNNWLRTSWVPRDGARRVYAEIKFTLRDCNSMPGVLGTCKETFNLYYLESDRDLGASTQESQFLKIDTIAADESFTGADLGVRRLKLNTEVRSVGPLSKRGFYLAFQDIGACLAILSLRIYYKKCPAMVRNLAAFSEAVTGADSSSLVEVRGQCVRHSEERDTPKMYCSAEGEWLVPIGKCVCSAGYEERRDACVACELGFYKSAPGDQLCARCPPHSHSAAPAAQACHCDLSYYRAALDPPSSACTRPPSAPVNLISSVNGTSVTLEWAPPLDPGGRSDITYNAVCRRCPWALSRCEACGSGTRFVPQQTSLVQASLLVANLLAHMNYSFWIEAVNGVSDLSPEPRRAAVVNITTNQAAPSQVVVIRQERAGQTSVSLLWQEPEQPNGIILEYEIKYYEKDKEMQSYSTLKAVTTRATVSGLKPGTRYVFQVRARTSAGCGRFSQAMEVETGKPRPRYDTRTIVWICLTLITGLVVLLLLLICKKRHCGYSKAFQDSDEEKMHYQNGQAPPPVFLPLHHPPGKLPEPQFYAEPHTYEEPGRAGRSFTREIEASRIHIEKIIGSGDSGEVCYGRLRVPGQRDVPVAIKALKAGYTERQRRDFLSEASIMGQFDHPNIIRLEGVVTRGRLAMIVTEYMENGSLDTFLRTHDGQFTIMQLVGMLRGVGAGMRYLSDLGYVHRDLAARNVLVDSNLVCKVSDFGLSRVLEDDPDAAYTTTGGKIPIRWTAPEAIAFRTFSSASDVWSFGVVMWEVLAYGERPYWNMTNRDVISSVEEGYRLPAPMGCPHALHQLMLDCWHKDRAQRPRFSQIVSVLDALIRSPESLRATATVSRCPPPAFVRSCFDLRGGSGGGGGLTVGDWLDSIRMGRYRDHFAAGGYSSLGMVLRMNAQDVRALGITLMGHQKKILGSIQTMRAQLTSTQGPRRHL
# [6] = biological target: Phosphorylase b kinase gamma catalytic chain, skeletal muscle/heart isoform (Homo sapiens) (UniProt Q16816); experiment: Inhibition of human PHKg1 at 1.82 nM by HotSpot assay relative to control
# Chain of Phosphorylase b kinase gamma catalytic chain, skeletal muscle/heart isoform (Homo sapiens) (Q16816 whole entry, looked up, canonical isoform): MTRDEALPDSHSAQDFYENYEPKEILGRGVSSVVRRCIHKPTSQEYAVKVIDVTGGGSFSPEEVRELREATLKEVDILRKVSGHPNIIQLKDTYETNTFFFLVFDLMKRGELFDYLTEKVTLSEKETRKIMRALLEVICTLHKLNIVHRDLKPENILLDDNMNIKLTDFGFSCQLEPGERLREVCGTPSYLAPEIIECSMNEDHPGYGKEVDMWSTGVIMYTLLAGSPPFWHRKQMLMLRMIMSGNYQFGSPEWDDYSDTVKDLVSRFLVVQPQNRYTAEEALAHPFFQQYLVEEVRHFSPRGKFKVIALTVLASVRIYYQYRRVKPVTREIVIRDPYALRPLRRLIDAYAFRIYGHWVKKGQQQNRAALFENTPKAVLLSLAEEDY
# [7] = biological target: Serine/threonine-protein kinase WNK2 (Homo sapiens) (UniProt Q9Y3S1); experiment: Inhibition of human WNK2 at 1.82 nM by HotSpot assay relative to control
# Chain of Serine/threonine-protein kinase WNK2 (Homo sapiens) (Q9Y3S1 whole entry): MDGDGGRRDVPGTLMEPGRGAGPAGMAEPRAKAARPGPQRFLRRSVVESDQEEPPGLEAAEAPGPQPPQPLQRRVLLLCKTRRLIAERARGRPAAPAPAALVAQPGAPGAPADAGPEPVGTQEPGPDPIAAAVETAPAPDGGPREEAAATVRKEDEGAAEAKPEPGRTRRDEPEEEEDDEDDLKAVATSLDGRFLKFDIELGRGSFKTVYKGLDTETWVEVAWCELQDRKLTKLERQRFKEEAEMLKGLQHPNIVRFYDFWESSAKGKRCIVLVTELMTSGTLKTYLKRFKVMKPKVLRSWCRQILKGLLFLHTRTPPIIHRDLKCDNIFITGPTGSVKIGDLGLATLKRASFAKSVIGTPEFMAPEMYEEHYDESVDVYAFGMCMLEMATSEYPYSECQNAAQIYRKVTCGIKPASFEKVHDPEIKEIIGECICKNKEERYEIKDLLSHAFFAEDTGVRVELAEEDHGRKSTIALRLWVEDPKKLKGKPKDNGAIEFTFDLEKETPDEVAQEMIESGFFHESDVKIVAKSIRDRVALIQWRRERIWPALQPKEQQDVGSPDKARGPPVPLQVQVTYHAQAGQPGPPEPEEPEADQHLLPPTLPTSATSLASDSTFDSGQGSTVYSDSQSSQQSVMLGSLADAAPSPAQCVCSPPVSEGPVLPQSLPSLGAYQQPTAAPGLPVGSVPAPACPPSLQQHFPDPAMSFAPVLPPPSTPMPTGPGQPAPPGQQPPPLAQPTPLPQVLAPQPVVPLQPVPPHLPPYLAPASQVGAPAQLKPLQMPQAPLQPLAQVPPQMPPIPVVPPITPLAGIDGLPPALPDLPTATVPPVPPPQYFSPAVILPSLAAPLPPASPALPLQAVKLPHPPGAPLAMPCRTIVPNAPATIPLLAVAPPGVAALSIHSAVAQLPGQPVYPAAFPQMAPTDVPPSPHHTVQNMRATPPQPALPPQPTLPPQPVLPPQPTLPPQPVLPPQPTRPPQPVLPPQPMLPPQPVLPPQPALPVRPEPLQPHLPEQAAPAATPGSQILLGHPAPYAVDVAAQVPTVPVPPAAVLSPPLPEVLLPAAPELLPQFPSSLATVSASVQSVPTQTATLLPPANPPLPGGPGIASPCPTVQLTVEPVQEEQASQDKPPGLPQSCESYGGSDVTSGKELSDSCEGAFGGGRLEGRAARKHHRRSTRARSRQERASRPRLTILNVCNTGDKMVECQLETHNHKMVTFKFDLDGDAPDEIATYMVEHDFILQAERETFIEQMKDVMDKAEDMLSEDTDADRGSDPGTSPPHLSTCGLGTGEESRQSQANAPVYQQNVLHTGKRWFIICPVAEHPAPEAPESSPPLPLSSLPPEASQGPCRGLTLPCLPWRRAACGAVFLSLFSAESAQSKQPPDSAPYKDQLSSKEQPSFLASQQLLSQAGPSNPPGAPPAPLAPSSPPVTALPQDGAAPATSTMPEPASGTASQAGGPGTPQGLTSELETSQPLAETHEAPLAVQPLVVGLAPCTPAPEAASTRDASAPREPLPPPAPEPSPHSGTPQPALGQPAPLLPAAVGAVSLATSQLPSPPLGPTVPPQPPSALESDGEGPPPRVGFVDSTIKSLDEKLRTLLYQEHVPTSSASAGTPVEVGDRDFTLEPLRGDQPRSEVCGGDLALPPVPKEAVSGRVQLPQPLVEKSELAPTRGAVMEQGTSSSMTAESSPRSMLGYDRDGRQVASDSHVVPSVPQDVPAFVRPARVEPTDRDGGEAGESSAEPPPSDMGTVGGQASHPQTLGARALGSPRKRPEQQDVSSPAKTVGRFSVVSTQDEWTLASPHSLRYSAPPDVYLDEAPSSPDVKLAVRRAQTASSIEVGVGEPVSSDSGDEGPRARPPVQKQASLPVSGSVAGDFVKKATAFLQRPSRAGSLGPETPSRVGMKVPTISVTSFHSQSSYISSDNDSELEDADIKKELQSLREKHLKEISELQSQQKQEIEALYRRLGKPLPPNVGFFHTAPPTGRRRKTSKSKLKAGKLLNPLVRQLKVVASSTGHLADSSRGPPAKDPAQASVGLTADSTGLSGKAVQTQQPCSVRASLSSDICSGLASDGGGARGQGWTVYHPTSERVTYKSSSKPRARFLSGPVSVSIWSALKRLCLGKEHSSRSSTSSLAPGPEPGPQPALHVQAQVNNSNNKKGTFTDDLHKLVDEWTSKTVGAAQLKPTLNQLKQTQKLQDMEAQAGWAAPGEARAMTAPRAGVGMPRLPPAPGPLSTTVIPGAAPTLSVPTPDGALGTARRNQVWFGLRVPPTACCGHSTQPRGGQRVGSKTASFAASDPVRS
inhibition [1],inhibition [2],inhibition [3],inhibition [4],inhibition [5],inhibition [6],inhibition [7],SMILES
-2.4%,8.2%,-1.76%,–,–,–,–,C[C@]1(O)C[C@@H](c2nc(-c3ccc4ccc(-c5ccccc5)nc4c3)c3c(N)nccn32)C1
–,–,–,1.01%,-4.62%,2.68%,-1.14%,C[C@@]1(C(=O)Nc2ccc(F)nc2)CCCN1c1nc(Nc2cc(C3CC3)n[nH]2)c2cccn2n1
